Test results reported in patent US11299447B2, “Method for isolating a carboxylic acid from an aqueous solution” (PURAC BIOCHEM BV, priority 2011, dated 2022).

Assays:
Format in all cases: physicochemical
[1] = Stability of extraction solvent in contact with 2-hydroxy butyric acid feed solution (gas chromatography); conditions: 60° C.
Description: This experiment was conducted to compare the stability of two solvents, MIBK and Isoamyl alcohol in contact with the 2-hydroxy butyric acid feed solution prepared by adding 340 g of crystalline hydroxy butyric acid to 720 g water and mixing to complete dissolution. The thus prepared feed solution comprised 32 wt % of hydroxy butyric acid.
For each solvent a closed glass reactor was filled with 20 g of solvent and 20 g of the hydroxy butyric acid feed solution, put in an oven to maintain a temperature of 60° C. and shaken continuously. After 3 hours, 24 hours (1 day) and 168 hours (1 week) the shaking was stopped for 1 hour to allow the phases to settle, a sample was taken from the solvent top layer, and the composition of the solvent top layer analyzed by gas chromatography.

[2] = Solvent solubility in aqueous MgCl2 solution (gas chromatography of aqueous phase)
Description: Hereafter, the stirring was stopped, the phases were allowed to separate and a sample was taken from the aqueous bottom phase. The concentration of solvent in this sample was determined by gas chromatography.

[3] = Extraction of different types of polycarboxylic acids; conditions: for DBE: distribution ratio in back extraction; for DFE: distribution ratio in forward extraction, feed 15 wt. % MgCl2
Description: These tables also give the concentration ratio, which is the ratio between the acid concentration in the product and the acid concentration in the feed.

[4] = Lactic acid distribution ratio MIBK/aqueous MgCl2 solution; conditions: initial lactic acid 20 wt %
Description: Forward extraction and back extraction as used in the method of the invention are based on the difference in solubility of the carboxylic acid in water and the organic solvent at different temperatures. The solubility of a compound in one solvent relative to another solvent can be expressed in terms of the distribution ratio (DR). This ratio gives an indication how a compound will be distributed over the aqueous phase (e.g. the aqueous mixture) and the organic phase (e.g. the organic liquid) in a two-phase system at equilibrium. The distribution ratio may be defined as the ratio of the carboxylic acid concentration dissolved in the organic phase ([carboxylic acid]organic) over the concentration of the carboxylic acid dissolved in water ([carboxylic acid]water), provided that the two phases are in equilibrium with each other: DR=[carboxylic acid]organic/[carboxylic acid]water (1)
The resulting two phase system was stirred at 20° C. or 60° C. for 30 minutes with sufficient speed to ensure that both phases are well dispersed. Hereafter, the stirring is stopped, the phases were allowed to separate and samples were taken from both phases. The concentration of lactic acid (wt %) in these samples was determined by potentiometric titration. Hereafter the distribution ratio was calculated as the ratio of the lactic acid concentration (wt %) in the MIBK organic solvent phase divided by the lactic acid concentration (wt %) in the aqueous phase.

[5] = Table 2.2, MgCl2 0 wt %, 20° C.
[6] = Table 2.2, MgCl2 15 wt %, 20° C.
[7] = Table 2.2, MgCl2 30 wt %, 20° C.

SMILES: CC(=O)CC(C)C [MIBK, methyl-isobutylketone]
- changes in the purity of the solvent ([1]; 20 g solvent + 20 g 32 wt % hydroxy butyric acid feed, after 168 hours): no changes in the purity of the MIBK could be detected
- MIBK solubility ([2]; MgCl2 0 wt %, 20° C.): 1.8 wt %
- MIBK solubility ([2]; MgCl2 0 wt %, 60° C.): 1.4 wt %
- MIBK solubility ([2]; MgCl2 15 wt %, 20° C.): 0.48 wt %
- MIBK solubility ([2]; MgCl2 15 wt %, 60° C.): 0.20 wt %
- MIBK solubility ([2]; MgCl2 30 wt %, 20° C.): 0.17 wt %
- MIBK solubility ([2]; MgCl2 30 wt %, 60° C.): 0.11 wt %
- Solvent solubility [2, 5]: 1.8 wt %
- Solvent solubility [2, 6]: 0.5 wt %
- Solvent solubility [2, 7]: 0.1 wt %

SMILES: O=C(O)/C=C/C(=O)O [Fumaric acid, fumaric acid]
- DFE/DBE [3]: 7.29
- DBE [3]: 0.24
- DFE [3]: 1.75

SMILES: CC(O)C(=O)O (stereo not shown) [lactic acid]
- Lactic acid distribution ratio ([4]; MgCl2 0 wt %, 20° C.): 0.16 wt %/wt %
- Lactic acid distribution ratio ([4]; MgCl2 0 wt %, 60° C.): 0.19 wt %/wt %
- Lactic acid distribution ratio ([4]; MgCl2 10.5 wt %, 20° C.): 0.33 wt %/wt %
- Lactic acid distribution ratio ([4]; MgCl2 10.5 wt %, 60° C.): 0.37 wt %/wt %
- Lactic acid distribution ratio ([4]; MgCl2 16.0 wt %, 20° C.): 0.49 wt %/wt %
- Lactic acid distribution ratio ([4]; MgCl2 16.0 wt %, 60° C.): 0.56 wt %/wt %

SMILES: CC(C)OC(C)C [Diisopropyl ether, reference compound]
- Solvent solubility [2, 5]: 1.0 wt %
- Solvent solubility [2, 6]: 0.4 wt %
- Solvent solubility [2, 7]: 0.7 wt %

SMILES: CC(C)CCO [Isoamyl alcohol, reference compound]
- isoamylhydroxybutyrate formed in solvent layer ([1]; 20 g solvent + 20 g 32 wt % hydroxy butyric acid feed, after 3 hours): 14.3 area %
- isoamylhydroxybutyrate concentration in solvent layer ([1]; after 24 hours): 21.5 area %
- isoamylhydroxybutyrate concentration in solvent layer ([1]; after 168 hours): 21.5 area %
- Solvent solubility [2, 5]: 2.8 wt %
- Solvent solubility [2, 6]: 1.5 wt %
- Solvent solubility [2, 7]: 0.6 wt %

SMILES: C=C(CC(=O)O)C(=O)O [Itaconic acid, itaconic acid]
- DFE/DBE [3]: 2.64
- DBE [3]: 1.07
- DFE [3]: 2.83
